pIC50: −log10 of the molar value. Starred links: 1 amine or outer side, 2 acyl side, 3 side chain; linkers in the order of their positions; H or OH if unused. Non-standard residues stand in square brackets, D forms with d. Residues, ends and D or L forms follow the SMILES beside them. ξ: configuration not given here. *: point of attachment. X3 = CC1(C)O[C@H]2O[C@H](C(=O)[*:2])[C@@H](N[*:1])[C@H]2O1; X1 = CC1(C)OC2[C@H](OC(C(O)C(=O)[*:2])[C@H]2N[*:1])O1; X2 = CC1(C)OC2[C@H](O[C@H](C(=O)[*:2])[C@H]2N[*:1])O1; Bip = N[C@@H](Cc1ccc(-c2ccccc2)cc1)C(=O)O; Trt = c1ccc(C(c2ccccc2)(c2ccccc2)*)cc1; Bta = N[C@@H](Cc1csc2ccccc12)C(=O)O; ξW = NC(Cc1c[nH]c2ccccc12)C(=O)O; Thr(3ξ) = CC(O)[C@H](N)C(=O)O; ξY = NC(Cc1ccc(O)cc1)C(=O)O; Nle = CCCC[C@H](N)C(=O)O; ξF = NC(Cc1ccccc1)C(=O)O; ξK = NCCCCC(N)C(=O)O; Bn = c1ccc(C*)cc1
What was measured:
[1] = tested on: Substance P release from sensory nerve terminals; experiment: Release of Substance P in vitro from electrically stimulated rat tracheae (RIA); conditions: for Substance P release, stim. / inhibition of Substance P release / Substance P release, post stim. / Substance P release, pre stim.: 500 nmol; for Substance P release, stim.: electrical field stimulation 40 V, 0.1 ms, 10 Hz, 120 s; for Substance P release, stim. / Substance P release, post stim. / Substance P release, pre stim.: released amount of peptide per tissue weight; for inhibition of Substance P release: electrically evoked release; for Substance P release, post stim.: poststimulated fraction; for Substance P release, pre stim.: prestimulated fraction; for Substance P release evoked by electrical stimulation of sensory nerve terminals (in words): compared with TT-232
Experimental: Effect of TG, SGA, TR, and TT-232 on the Release of Substance P in vitro Methods:
After exsanguination the tracheae of 2-2 female Wistar rats were removed and perfused (1 ml min^−1) in an organ bath (1.8 ml) at 37° C. for 60 min with oxygenated (95% O2 and 5% CO2) Krebs solution of the following composition (in mM): NaCl 119, NaHCO3 25, KH2PO4 1.2, MgSO4 1.5, KCl 4.7, CaCl2 2.5, glucose 11. After stopping the flow the solution was changed 3 times for 8 min (prestimulated—stimulated—poststimulated). Electrical field stimulation (40 V, 0.1 ms, 10 Hz, 120 s) was performed to induce release of sensory neuropeptides from the tissue pieces in the presence or absence of SGTG, SGA, SGTH, or TT-232 (500-500 nM). The fractions were collected in ice-cold tubes and the wet weight of the tracheae were measured. Concentration of SP was determined by specific radioimmunoassay (RIA) methods developed in our laboratory (Németh, J., Oroszi, G., Thán, M., Helyes, Zs., Pintér, E., Farkas, B. and Szolcsányi, J.: Substance P radioimmunoassay for quantitative characterization of sensory neurotransmitter release. Neurobiology, 7, 437-444, 1999) and was expressed as the released amount of peptide per tissue weight.

[2] = tested on: A431 (an epidermoid cancer); conditions: A431, MB and MTT assays
Experimental: (§3) Each compound was tested under 4 conditions: 6 h (to exclude necrosis) and 48 h to see inhibition of proliferation and apoptosis.

A431 and Panc-1 = conditions: number of cell deaths after 6 h of incubation
Experimental: The Compounds shown below were tested on two cell-lines, A431 (A. T. C. C. reference No. CRL-1555, c.f. American Type Culture Collection, http://phage.atcc.org/cgi-bin/searchengine/longview.cgi?view=ce,663682,CRL-1555&text=a-431, 2001, pp. http://phage.atcc.org/cgi-bin/searchengine/longview.cgi?view-ce,663682,CRL-661555&text=a-663431; http://phage.atcc.org/cgi-bin/searchengine/longview.cgi?view=ce,663682,CRL-661555&text=a-663431) (an epidermoid cancer) and Panc-1 (A.T.C.C. reference No. CRL-1469, c.f. American Type Culture Collection, http://phage.atcc.org/cgi-bin/searchengine/longview.egi?view=ce,609764,CRL-1469&text=panc-1) (a well differentiated pancreatic adenocarcinoma), both of human origin, using the MTT (Carmichael J et al. Cancer Res. 47(4): pp. 936-42, 1987.) and MB (Oliver M H, Harrison N K, Bishop J E, Cole P J, Laurent G J; J Cell Sci 1989 March;92 ( Pt 3):513-8) assays. [drawing 25]
Each compound was tested under […]: 6 h (to exclude necrosis) and 48 h to see inhibition of proliferation and apoptosis.

[3] = tested on: Panc-1 (a well differentiated pancreatic adenocarcinoma); conditions: Panc-1, MB and MTT assays
Experimental: as §3

[4] = tested on: multi-drug resistant cell line Klon 2 (10×80); experiment: XTT/PMS cytotoxicity assay, multidrug resistant hepatoma cells; format: cell-based, rat; conditions: 72 hrs incubation
From the text: (§1) Rat hepatoma cells were cultivated in a F 12 medium (GibcoBRL), to which 5% of foetal calf serum had been added, in a atmosphere saturated with humidity (>95%) and having a CO2 content of 8% in air. The cell line named “Klon 2” was isolated by Venetianer et al. (Cytogentc.Cell.Genet 28:280-283, 1980). The cell line 2 (10×80)T1 is a sub-clone of Klon 2 having a moderate multi-drug resistance 8 (Pirity, Hever-Szabo and Venetianer, Cytotechnology 19:207-214, 1996). The degree of resistance of cell line 2 (10×80) was determined by a Niagara blue exclusion test, the cells being exposed to different concentrations of the following cytostatic agents for 72 hrs.
(§2) The XTT/PMS Assay (Scuderio et al., Cancer Res. 48:4827-4833, 1988; Roehm et al., J.Immun.Methods 142:257-265, 1991) was utilised to determine the cytotoxicity of the compounds. For this purpose, the viability of the sensitive cell line Klon 2 was tested in comparison with that of the multi-drug resistant cell line Klon 2 (10×80). An identical number of cells was applied to a 96 cell culture plate. […] The cell viability was determined by triple determination for each concentration by means of the XTT/PMS dye test (Scuderio et al., Cancer Res. 48:4827-4833, 1988; Roehm et al., J.Immun.Methods 142:257-265,1991). […]

[5] = tested on: sensitive cell line Klon 2; experiment: XTT/PMS cytotoxicity assay, drug sensitive hepatoma cells; format: cell-based, rat; conditions: Klon 2, XTT/PMS, 72 hrs incubation
From the text: as §1, §2

Q: Which results are given for `CC1(C)OC2[C@H](O[C@@H]3C(=O)N[C@@H](Cc4ccccc4)C(=O)N[C@@H](Cc4c[nH]c5ccccc45)C(=O)N[C@@H](CCCCN)C(=O)N[C@@H]23)O1` (stereo partly drawn) [SGA, cyclo[-Phe-Trp-Lys-Z1-]]?
A: Substance P release, stim. [1]: 4.81; inhibition of Substance P release [1]: 28.4%; Substance P release, post stim. [1]: 2.07; Substance P release, pre stim. [1]: 1.81; Substance P release evoked by electrical stimulation of sensory nerve terminals (in words) [1]: inhibited

Q: What does the source list for `CCCC[C@@H]1NC(=O)[C@@H](Cc2c[nH]c3ccccc23)NC(=O)[C@H](Cc2ccc(O)cc2)NC(=O)[C@H]2O[C@@H]3OC(C)(C)O[C@@H]3[C@@H]2NC(=O)[C@H]([C@@H](C)OC(c2ccccc2)(c2ccccc2)c2ccccc2)NC1=O` [SGnc 7, cyclo[-D-Trp-Nle-Thr(OTrt)-Z1-Tyr-]] (cyclo([Nle]T(Trt)[X3]Y[dW]))?
A: pIC50 [2]: 5.00; Necrosis (A431 and Panc-1): none; pIC50 [3]: 5.00

Q: How did the pIC50 [2] turn out when `C[C@@H](OC(c1ccccc1)(c1ccccc1)c1ccccc1)C1NC(=O)[C@H](CCCCN)NC(=O)[C@H](Cc2csc3ccccc23)NC(=O)[C@H](Cc2ccc(O)cc2)NC(=O)[C@H]2O[C@@H]3OC(C)(C)OC3[C@@H]2NC1=O` (some centres unmarked) [SGnc 8] was run?
A: 4.30

Q: What about the Necrosis (A431 and Panc-1) of the same molecule?
A: some

Q: What about the pIC50 [3] of the same molecule?
A: 4.40

Q: How did the pIC50 [2] turn out when `C[C@@H](OC(c1ccccc1)(c1ccccc1)c1ccccc1)C1NC(=O)[C@H](CCCCN)NC(=O)[C@H](Cc2ccc3ccccc3c2)NC(=O)[C@H](Cc2ccc(O)cc2)NC(=O)[C@H]2O[C@@H]3OC(C)(C)OC3[C@@H]2NC1=O` (some centres unmarked) [SGnc 10] was run?
A: 4.26

Q: And the Necrosis (A431 and Panc-1)?
A: some

Q: And the pIC50 [3]?
A: 4.40

Q: With `CC(OC(c1ccccc1)(c1ccccc1)c1ccccc1)[C@@H]1NC(=O)C(CCCCN)NC(=O)[C@@H](Cc2c[nH]c3ccccc23)NC(=O)C(Cc2ccccc2)NC(=O)C(O)C2O[C@@H]3OC(C)(C)OC3[C@@H]2NC1=O` (stereo partly drawn) [SGnc 18, c[-D-Trp-Lys-Thr(OTrt)-Z2-Phe-]] (cyclo([Thr(3ξ)](Trt)[X1][ξF][dW][ξK])) as the molecule, how does the pIC50 [2] read?
A: ~4.30

Q: And the Necrosis (A431 and Panc-1)?
A: some

Q: What about the pIC50 [3] of the same molecule?
A: ~4.30

Q: With `CC1(C)OC2[C@H](OC3C(O)C(=O)NC(Cc4ccccc4)C(=O)N[C@H](Cc4c[nH]c5ccccc45)C(=O)NC(CCCCN)C(=O)N[C@@H](Cc4ccc(-c5ccccc5)cc4)C(=O)N[C@H]32)O1` (stereo partly drawn) [SGnc 20, cyclo[-D-Trp-Lys-Thr(OTrt)-Z2-Phe-]] (cyclo([Bip][X1][ξF][dW][ξK])) as the molecule, how does the pIC50 [2] read?
A: ~4.22

Q: And the Necrosis (A431 and Panc-1)?
A: some

Q: What about the pIC50 [3] of the same molecule?
A: ~4.22

Q: `CC(OCc1ccccc1)[C@@H]1NC(=O)C(CCCCN)NC(=O)C(Cc2c[nH]c3ccccc23)NC(=O)C(Cc2ccc(O)cc2)NC(=O)[C@H]2O[C@@H]3OC(C)(C)OC3[C@@H]2NC1=O` (stereo partly drawn) [SGnc 38, cyclo[-D-Trp-Lys-Thr(OBzl)-Z1-Tyr-]] (cyclo([Thr(3ξ)](Bn)[X2][ξY][ξW][ξK])) was tested. Which pIC50 [2] did it give?
A: ~4.30

Q: What about the Necrosis (A431 and Panc-1) of the same molecule?
A: some

Q: What about the pIC50 [3] of the same molecule?
A: ~4.30

Q: Which results are given for `CC(OC(c1ccccc1)(c1ccccc1)c1ccccc1)[C@@H]1NC(=O)C(CCCCN)NC(=O)[C@@H](Cc2csc3ccccc23)NC(=O)C(Cc2ccc(O)cc2)NC(=O)[C@H]2O[C@@H]3OC(C)(C)OC3[C@@H]2NC1=O` (some centres unmarked) [SGnc 50]?
A: pIC50 [2]: ~4.42; Necrosis (A431 and Panc-1): none; pIC50 [3]: ~4.42

Q: What does the source list for `CC1(C)OC2[C@H](O[C@@H]3C(=O)NC(Cc4ccc(O)cc4)C(=O)N[C@@H](Cc4csc5ccccc45)C(=O)NC(CCCCN)C(=O)N[C@@H](Cc4ccc(OCc5ccccc5)cc4)C(=O)N[C@@H]23)O1` (some centres unmarked) [SGnc 51] (cyclo([Bta][ξK]Y(Bn)[X2][ξY]))?
A: pIC50 [2]: 4.46; Necrosis (A431 and Panc-1): almost none; pIC50 [3]: 4.46

Q: Which results are given for c[-D-Trp-Lys-1-Nal-Z1-Phe-] [SGnc 15]?
A: pIC50 [2]: ~3.96; Necrosis (A431 and Panc-1): some; pIC50 [3]: ~3.96

Q: Which results are given for c[-D-Trp-Lys-Bpa-Z1-Phe-] [SGnc 14]?
A: pIC50 [2]: ~4.00; Necrosis (A431 and Panc-1): almost none; pIC50 [3]: ~4.00

Q: Which results are given for c[-D-Trp-Lys-Thr(OTrt)-Z1-Tyr-]?
A: pIC50 [4]: 4.60; Substance P release, stim. [1]: 5.14; inhibition of Substance P release [1]: 19.3%; Substance P release, post stim. [1]: 2.31; Substance P release, pre stim. [1]: 1.76; Substance P release evoked by electrical stimulation of sensory nerve terminals (in words) [1]: inhibited; pIC50 [5]: 4.51

Q: With c[-Tyr-Trp-Lys-Thr-Z1-] as the molecule, how does the pIC50 [4] read?
A: 4.33

Q: And the pIC50 [5]?
A: 4.12

— patent US20030114362A1, “Penta-or tetrapeptide binding to somatostatin receptors and the use of the same” (Novaspin Biotech GmbH, priority 2001, published 2003)
